These results are taken from patent publication US20210121527A1, “METHODS OF TREATING MINIMAL RESIDUAL CANCER” (ICAHN SCHOOL OF MEDICINE AT MOUNT SINAI, priority 2018, published 2021).

What all share (type): binding
One test deals with 456 kinases. The test can be described thus: DiscoveRx scanMAX kinase profiling, number of kinases inhibited. Particulars: for # kinases inhibited >50%: 456 kinases tested; for number of kinases with >60% inhibition: 20 μM as stated in text, 456 kinases. The protocol:
(§1) Biochemical assays: Recombinant human EIF2AK3 (PERK) catalytic domain (amino acids 536-1116; Cat # PV5107), GFP-eIF2a (Cat # PV4809) substrate, and Terbium-labelled phospho-eIF2a antibody (Cat # PR8956B) were purchased from Invitrogen (Carlsbad, Calif.). HIS-SUMO-GCN2 catalytic domain (amino acids 584-1019) was expressed and purified from E. coli. TR-FRET kinase assays were performed in the absence or presence of inhibitors in a reaction buffer consisting of 50 mM HEPES, pH 7.5, 10 mMMgCl2, 1.0 mM EGTA, and 0.01% Brij-35, and 100-200 nM GFP-eIF2a substrate. […] Following the addition of test compound, the reaction was initiated by addition of enzyme and incubated at room temperature for 45 minutes. The reaction was stopped by addition of EDTA to a final concentration of 10 mM and Terbium-labelled phospho-eIF2α antibody was added at a final concentration of 2 nM and incubated for 90 minutes. The resulting fluorescence was monitored in an EnVison® Multilabel reader (PerkinElmer, Waltham, Mass.). TR-FRET ratios and the resulting IC50 values were determined from the fitted inhibition curves. Biochemical specificity profiling was performed at Cerep (Redmond, Wash.) and DiscoverX (San Diego, Calif.).

The target of a further test is T1, PIK3C2B (Homo sapiens, UniProt O00750).
T1 construct: purchased DiscoverX (San Diego, Calif.)
The test can be described thus: DiscoveRx scanMAX kinase profiling. Particulars: read-out: Direct inhibitory activity on PIK3C2B (KINOMEscan). How it is done:
as §1

A further test concerns the target T2, PIK3CA (Homo sapiens, UniProt P42336).
T2 construct: purchased DiscoverX (San Diego, Calif.)
In words: DiscoveRx scanMAX kinase profiling. Conditions: read-out: Direct inhibitory activity on PIK3CA (KINOMEscan). How it is done:
as §1

Another test concerns the target T3, SRC (Homo sapiens, UniProt P12931).
T3 construct: purchased DiscoverX (San Diego, Calif.) scanMAX
In words: DiscoveRx scanMAX kinase profiling. Conditions: read-out: Direct inhibitory activity on SRC (KINOMEscan). How it is done: as §1

A further test concerns the target T4, EIF2AK1 (Homo sapiens, UniProt Q9BQI3).
T4 construct: purchased DiscoverX (San Diego, Calif.) scanMAX
In words: DiscoveRx scanMAX kinase profiling. Particulars: read-out: Inhibition of EIF2AK1 (KINOMEscan). The protocol: as §1

Another test concerns the target T5, AKT1 (Homo sapiens, UniProt P31749).
T5 construct: purchased DiscoverX (San Diego, Calif.) scanMAX
In words: DiscoveRx scanMAX kinase profiling. Particulars: read-out: Direct inhibitory activity on AKT1 (KINOMEscan). How it is done: as §1

In the next test the target is T6, ERK1 (MAPK3) (Homo sapiens, UniProt P27361).
T6 construct: purchased DiscoverX (San Diego, Calif.) scanMAX
The test can be described thus: DiscoveRx scanMAX kinase profiling. Particulars: read-out: Direct inhibitory activity on ERK1 (KINOMEscan). The protocol:
as §1

The next test deals with T7, ERBB3 (Homo sapiens, UniProt P21860).
T7 construct: purchased DiscoverX (San Diego, Calif.) scanMAX
The test can be described thus: DiscoveRx scanMAX kinase profiling. Conditions: read-out: Direct inhibitory activity on ERBB3 (KINOMEscan). The protocol: as §1

The next test addresses T8, ERK5 (MAPK7) (Homo sapiens, UniProt Q13164).
T8 construct: purchased DiscoverX (San Diego, Calif.) scanMAX
In words: DiscoveRx scanMAX kinase profiling. Conditions: read-out: Direct inhibitory activity on ERK5 (KINOMEscan). How it is done:
as §1

The target in the next test is T9, AKT3 (Homo sapiens, UniProt Q9Y243).
T9 construct: purchased DiscoverX (San Diego, Calif.) scanMAX
In words: DiscoveRx scanMAX kinase profiling. Particulars: read-out: Direct inhibitory activity on AKT3 (KINOMEscan). How it is done: as §1

Test [1] addresses T10, GCN2 (Kin.Dom.2,S808G) (EIF2AK4) (Homo sapiens, UniProt Q9P2K8, S808G).
T10 construct: Kin.Dom.2; purchased DiscoverX (San Diego, Calif.) scanMAX
T10 sequence (Q9P2K8 590-1001 S808G limits assumed): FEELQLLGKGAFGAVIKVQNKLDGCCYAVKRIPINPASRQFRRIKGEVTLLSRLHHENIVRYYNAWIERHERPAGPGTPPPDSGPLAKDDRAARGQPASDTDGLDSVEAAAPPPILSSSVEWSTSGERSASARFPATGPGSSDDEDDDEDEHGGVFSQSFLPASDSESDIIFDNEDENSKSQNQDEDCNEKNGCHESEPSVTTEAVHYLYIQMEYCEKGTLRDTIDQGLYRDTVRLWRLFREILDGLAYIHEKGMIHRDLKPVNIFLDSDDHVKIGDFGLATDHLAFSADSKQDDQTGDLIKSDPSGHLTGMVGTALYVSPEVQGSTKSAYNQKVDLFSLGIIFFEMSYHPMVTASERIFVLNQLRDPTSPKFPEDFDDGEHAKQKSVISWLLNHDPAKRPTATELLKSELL
The test can be described thus: DiscoveRx scanMAX kinase profiling. Conditions: read-out: Inhibition of GCN2/EIF2AK4 (KINOMEscan). The protocol:
as §1, with “TR-FRET” for “Biochemical assays: Recombinant human EIF2AK3 (PERK) catalytic domain (amino acids 536-1116; Cat # PV5107), GFP-eIF2a (Cat # PV4809) substrate, and Terbium-labelled phospho-eIF2a antibody (Cat # PR8956B) were purchased from Invitrogen (Carlsbad, Calif.). HIS-SUMO-GCN2 catalytic domain (amino acids 584-1019) was expressed and purified from E. coli. TR-FRET”

A further test has as its target T11, PRKR (EIF2AK2) (Homo sapiens, UniProt P19525).
T11 construct: purchased DiscoverX (San Diego, Calif.) scanMAX
In words: DiscoveRx scanMAX kinase profiling. Conditions: read-out: Inhibition of PRKR/EIF2AK2 (KINOMEscan). How it is done:
as §1, with “TR-FRET” for “Biochemical assays: Recombinant human EIF2AK3 (PERK) catalytic domain (amino acids 536-1116; Cat # PV5107), GFP-eIF2a (Cat # PV4809) substrate, and Terbium-labelled phospho-eIF2a antibody (Cat # PR8956B) were purchased from Invitrogen (Carlsbad, Calif.). HIS-SUMO-GCN2 catalytic domain (amino acids 584-1019) was expressed and purified from E. coli. TR-FRET”

T4 sequence (Q9BQI3 whole entry): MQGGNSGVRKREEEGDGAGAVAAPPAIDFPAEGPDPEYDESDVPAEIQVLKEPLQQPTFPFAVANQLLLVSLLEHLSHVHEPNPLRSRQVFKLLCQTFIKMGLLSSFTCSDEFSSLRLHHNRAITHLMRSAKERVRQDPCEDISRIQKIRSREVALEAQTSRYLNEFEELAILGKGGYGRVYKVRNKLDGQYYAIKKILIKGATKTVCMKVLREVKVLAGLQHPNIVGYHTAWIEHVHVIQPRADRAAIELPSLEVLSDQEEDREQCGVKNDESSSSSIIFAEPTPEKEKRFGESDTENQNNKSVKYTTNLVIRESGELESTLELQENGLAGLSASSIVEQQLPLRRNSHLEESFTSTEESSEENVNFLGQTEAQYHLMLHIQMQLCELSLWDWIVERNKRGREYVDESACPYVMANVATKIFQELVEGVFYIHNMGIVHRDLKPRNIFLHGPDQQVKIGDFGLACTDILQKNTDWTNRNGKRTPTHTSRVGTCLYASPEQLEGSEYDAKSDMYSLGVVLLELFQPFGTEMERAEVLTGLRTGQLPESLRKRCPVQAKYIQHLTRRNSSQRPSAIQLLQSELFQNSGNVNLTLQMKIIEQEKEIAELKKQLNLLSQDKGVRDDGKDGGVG
T8 sequence (Q13164 whole entry): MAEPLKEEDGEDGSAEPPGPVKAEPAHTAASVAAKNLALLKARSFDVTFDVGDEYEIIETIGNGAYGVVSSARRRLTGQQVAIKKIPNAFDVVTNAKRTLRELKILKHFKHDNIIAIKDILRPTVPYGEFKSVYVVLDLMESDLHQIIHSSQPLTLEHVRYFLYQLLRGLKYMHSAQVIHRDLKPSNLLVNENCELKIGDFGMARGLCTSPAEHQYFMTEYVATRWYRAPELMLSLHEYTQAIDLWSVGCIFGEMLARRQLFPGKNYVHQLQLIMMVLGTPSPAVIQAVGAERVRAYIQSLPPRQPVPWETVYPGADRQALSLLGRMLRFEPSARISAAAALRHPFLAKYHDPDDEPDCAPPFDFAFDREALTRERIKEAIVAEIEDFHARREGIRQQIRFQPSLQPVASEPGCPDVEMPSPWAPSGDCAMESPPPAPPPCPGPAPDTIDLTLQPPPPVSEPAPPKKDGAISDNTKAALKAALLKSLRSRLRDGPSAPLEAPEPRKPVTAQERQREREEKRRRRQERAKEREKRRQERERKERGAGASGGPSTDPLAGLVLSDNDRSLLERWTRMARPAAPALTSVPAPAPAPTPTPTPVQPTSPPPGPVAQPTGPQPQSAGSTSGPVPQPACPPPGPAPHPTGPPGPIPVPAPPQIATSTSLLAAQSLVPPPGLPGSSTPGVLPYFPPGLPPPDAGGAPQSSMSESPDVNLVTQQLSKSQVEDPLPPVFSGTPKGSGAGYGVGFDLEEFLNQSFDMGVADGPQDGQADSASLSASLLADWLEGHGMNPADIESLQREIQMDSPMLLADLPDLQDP
T11 sequence (P19525 whole entry): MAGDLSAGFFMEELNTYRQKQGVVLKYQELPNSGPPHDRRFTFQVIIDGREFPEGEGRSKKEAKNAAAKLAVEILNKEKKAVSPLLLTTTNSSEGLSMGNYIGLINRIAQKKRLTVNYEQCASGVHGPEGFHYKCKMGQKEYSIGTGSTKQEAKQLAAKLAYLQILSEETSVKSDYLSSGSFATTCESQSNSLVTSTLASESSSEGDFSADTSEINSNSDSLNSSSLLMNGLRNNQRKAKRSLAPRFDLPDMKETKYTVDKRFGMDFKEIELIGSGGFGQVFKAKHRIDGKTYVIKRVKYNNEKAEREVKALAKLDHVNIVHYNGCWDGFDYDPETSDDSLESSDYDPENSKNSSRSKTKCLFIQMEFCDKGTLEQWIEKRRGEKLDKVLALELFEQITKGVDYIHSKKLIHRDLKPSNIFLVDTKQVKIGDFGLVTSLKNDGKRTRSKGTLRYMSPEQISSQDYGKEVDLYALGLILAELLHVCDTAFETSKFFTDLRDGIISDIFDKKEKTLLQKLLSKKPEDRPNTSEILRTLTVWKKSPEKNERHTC
T6 sequence (P27361 whole entry): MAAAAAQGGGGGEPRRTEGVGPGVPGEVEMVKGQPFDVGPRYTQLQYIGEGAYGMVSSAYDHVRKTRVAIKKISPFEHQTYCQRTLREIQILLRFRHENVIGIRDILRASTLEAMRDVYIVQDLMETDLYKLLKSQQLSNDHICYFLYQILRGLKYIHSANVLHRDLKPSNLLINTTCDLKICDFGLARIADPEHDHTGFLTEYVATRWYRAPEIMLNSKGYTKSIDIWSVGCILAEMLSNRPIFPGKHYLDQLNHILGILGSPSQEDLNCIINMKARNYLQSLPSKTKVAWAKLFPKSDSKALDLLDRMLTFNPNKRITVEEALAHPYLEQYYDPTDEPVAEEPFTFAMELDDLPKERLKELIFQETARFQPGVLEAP
T7 sequence (P21860 20-1342): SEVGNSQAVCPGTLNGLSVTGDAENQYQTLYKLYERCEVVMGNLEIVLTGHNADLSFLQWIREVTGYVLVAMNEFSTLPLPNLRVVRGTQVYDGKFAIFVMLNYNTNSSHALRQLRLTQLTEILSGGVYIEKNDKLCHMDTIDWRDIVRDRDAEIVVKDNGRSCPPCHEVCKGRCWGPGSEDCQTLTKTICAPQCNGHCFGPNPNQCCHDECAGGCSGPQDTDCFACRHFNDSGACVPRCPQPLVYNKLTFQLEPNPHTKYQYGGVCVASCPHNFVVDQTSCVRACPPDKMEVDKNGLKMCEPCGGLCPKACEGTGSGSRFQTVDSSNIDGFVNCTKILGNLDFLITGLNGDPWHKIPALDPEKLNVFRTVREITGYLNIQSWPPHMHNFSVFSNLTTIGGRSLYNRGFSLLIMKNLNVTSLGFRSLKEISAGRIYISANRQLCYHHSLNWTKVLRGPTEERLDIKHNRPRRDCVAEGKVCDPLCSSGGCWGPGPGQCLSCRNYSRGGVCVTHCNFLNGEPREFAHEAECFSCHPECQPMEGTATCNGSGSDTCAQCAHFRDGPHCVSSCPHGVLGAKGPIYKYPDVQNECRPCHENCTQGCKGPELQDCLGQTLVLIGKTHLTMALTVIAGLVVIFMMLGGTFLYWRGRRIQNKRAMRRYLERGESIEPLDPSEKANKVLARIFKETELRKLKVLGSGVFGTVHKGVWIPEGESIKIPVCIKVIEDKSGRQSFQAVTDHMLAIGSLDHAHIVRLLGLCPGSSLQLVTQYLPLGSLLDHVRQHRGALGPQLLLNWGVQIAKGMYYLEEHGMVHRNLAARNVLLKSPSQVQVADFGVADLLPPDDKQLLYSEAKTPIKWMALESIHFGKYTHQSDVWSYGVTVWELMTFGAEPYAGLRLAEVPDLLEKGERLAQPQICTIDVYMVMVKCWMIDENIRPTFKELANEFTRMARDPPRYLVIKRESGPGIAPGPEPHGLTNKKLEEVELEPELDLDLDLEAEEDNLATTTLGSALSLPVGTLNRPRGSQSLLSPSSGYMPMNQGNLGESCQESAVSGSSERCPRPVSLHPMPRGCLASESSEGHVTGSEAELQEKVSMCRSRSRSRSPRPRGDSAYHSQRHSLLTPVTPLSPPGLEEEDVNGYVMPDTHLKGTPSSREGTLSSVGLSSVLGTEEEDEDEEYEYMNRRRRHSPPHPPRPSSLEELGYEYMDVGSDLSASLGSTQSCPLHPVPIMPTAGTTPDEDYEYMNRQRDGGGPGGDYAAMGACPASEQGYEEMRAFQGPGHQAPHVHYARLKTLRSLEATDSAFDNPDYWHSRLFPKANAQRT
T2 sequence (P42336 whole entry): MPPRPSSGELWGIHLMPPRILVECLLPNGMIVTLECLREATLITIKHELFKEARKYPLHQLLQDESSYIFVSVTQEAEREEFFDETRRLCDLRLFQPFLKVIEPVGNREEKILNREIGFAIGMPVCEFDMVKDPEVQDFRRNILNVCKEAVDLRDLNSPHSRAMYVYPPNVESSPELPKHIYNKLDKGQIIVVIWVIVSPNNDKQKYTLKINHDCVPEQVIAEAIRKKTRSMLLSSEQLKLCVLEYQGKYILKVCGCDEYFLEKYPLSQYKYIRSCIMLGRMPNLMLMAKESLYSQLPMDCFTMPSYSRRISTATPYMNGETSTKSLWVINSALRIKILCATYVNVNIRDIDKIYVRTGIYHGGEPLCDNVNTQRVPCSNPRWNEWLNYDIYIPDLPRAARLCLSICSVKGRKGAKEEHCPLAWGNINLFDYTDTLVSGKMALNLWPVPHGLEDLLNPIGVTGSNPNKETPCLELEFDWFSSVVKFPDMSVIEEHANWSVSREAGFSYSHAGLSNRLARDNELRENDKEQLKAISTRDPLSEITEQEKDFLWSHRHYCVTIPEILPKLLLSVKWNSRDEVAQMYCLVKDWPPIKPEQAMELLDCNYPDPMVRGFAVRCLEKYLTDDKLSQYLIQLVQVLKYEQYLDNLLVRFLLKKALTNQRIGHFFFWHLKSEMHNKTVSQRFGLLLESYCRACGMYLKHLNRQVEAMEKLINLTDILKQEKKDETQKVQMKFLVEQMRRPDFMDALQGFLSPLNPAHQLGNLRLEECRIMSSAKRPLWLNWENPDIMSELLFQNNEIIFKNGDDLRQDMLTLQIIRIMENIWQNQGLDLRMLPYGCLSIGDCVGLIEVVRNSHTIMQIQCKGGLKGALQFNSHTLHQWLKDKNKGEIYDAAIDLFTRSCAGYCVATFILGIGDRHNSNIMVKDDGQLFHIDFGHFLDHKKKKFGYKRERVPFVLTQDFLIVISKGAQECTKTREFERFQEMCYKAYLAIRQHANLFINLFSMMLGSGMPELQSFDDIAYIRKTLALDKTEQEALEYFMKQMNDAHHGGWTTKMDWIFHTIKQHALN

In the case of `CNC(=O)c1nc(-c2ccc(NC(=O)[C@H](O)c3cc(F)cc(F)c3)cc2C)cnc1N` [LY2, 3-amino-6-[4-[[(2R)-2-(3,5-difluorophenyl)-2-hydroxy-acetyl]amino]-2-methyl-phenyl]-N-methyl-pyrazine-2-carboxamide], the “# kinases inhibited >50%” value came out at 16 at 456 kinases (0.2 μM), 35 at 456 kinases (2.0 μM) and 138 on 456 kinases (20.0 μM).
For `Cc1cccc(CC(=O)N2CCc3c2ccc(-c2cn(C)c4ncnc(N)c24)c3F)n1` [GSK2656157, reference compound], the inhibition at 0.2 µM on PIK3C2B came to 0%; on PIK3CA it was 0%; at SRC, 10%; at EIF2AK1, 8%; on AKT1, 14%; at ERK1 (MAPK3) it was 0%. Further, the inhibition at 0.2 µM on ERBB3 turned out to be 40%; on ERK5 (MAPK7), 4%; on AKT3, 24%; in test [1] it was 7%; at PRKR (EIF2AK2) it was 20%. The inhibition at 2 µM on PIK3C2B came to 9%; at PIK3CA it was 8%; at SRC it was 45%; on EIF2AK1, 77%; at AKT1, 32%; on ERK1 (MAPK3) it was 17%. Moreover, the inhibition at 2 µM on ERBB3 came to 22%; on ERK5 (MAPK7), 23%; on AKT3, 7%; in test [1], 13%; on PRKR (EIF2AK2), 45%. The inhibition at 20 µM on PIK3C2B stood at 22%; at PIK3CA, 0%; on SRC, 69%; on EIF2AK1, 95%; at AKT1, 0%; at ERK1 (MAPK3), 0%. Moreover, the inhibition at 20 µM on ERBB3 amounted to 53%; on ERK5 (MAPK7) it was 12%; on AKT3, 0%; in test [1], 79%; on PRKR (EIF2AK2) it was 67%. The “# kinases inhibited >50%” value at 456 kinases (0.2 μM) is listed as 34; at 456 kinases (2.0 μM), 80. Besides, the “number of kinases with >60% inhibition” value in the test with 456 kinases is listed as 58.
`Cc1cc(NC(=O)[C@H](O)c2cccc(F)c2)ccc1-c1cn(C)c2ncnc(N)c12` [LY3, (2R)-N-[4-(4-amino-7-methyl-pyrrolo[2,3-d]pyrimidin-5-yl)-3-methyl-phenyl]-2-(3-fluorophenyl)-2-hydroxy-acetamide]: the “# kinases inhibited >50%” value at 456 kinases (0.2 μM) is on record as 27; on 456 kinases (2.0 μM), 85; at 456 kinases (20.0 μM), 229.
`Cc1cc(NC(=O)[C@H](O)c2cc(F)cc(F)c2)ccc1-c1cnc(N)c(C(=O)NC(C)C)c1` [LY4, 2-amino-5-[4-[[(2R)-2-(3,5-difluorophenyl)-2-hydroxy-acetyl]amino]-2-methyl-phenyl]-N-isopropyl-pyridine-3-carboxamide]: the inhibition at 0.2 µM stood at 40% on PIK3C2B; 9% on PIK3CA; 0% on SRC; 0% on EIF2AK1; 0% at AKT1; 2% on ERK1 (MAPK3). The inhibition at 0.2 µM (at ERBB3; at ERK5 (MAPK7); at AKT3; in test [1]; on PRKR (EIF2AK2)) was 0% in each case. Moreover, the inhibition at 2 µM is 39% on PIK3C2B; 0% at PIK3CA; 1% on SRC; 0% at EIF2AK1; 5% on AKT1; 18% at ERK1 (MAPK3). For the same compound, the inhibition at 2 µM (at ERBB3; at ERK5 (MAPK7); on AKT3; in test [1]; on PRKR (EIF2AK2)) was 0% each time. For the same compound, the inhibition at 20 µM on PIK3C2B was 94%; at PIK3CA it was 8%; on SRC, 11%; at EIF2AK1 it was 35%; at AKT1 it was 0%; at ERK1 (MAPK3), 0%. For the same compound, the inhibition at 20 µM was determined as 0% at ERBB3; 4% on ERK5 (MAPK7); 13% at AKT3; 28% in test [1]; 0% on PRKR (EIF2AK2). Besides, the “# kinases inhibited >50%” value turned out to be 19 on 456 kinases (0.2 μM) and 20 on 456 kinases (2.0 μM). In addition, in the test on 456 kinases, the “number of kinases with >60% inhibition” value is 8.
